Read-outs that look alike come from different tables or passages of the source.
Experiments:
[1] = target: T1, rat brain N-type calcium channel subunits (α1B+α2δ+β1b cDNA subunits) (Rattus norvegicus, UniProt Q02294); assay: N-type calcium channel block, whole cell patch clamp in HEK 293 cells; format: cell-based; conditions: holding potential −80 mV to +10 mV
T1 construct: expressed in transfected cells; host or cells: HEK 293
Description: N-type calcium channel blocking activity was assayed in human embryonic kidney cells, HEK 293, stably transfected with the rat brain N-type calcium channel subunits (α1B+α2δ+β1b cDNA subunits). Alternatively, N-type calcium channels (α1B+α2δ+β1b cDNA subunits), L-type channels (α1C+α2δ+β1b cDNA subunits) and P/Q-type channels (α1A+α2δ+β1b cDNA subunits) were transiently expressed in HEK 293 cells. Briefly, cells were cultured in Dulbecco's modified eagle medium (DMEM) supplemented with 10% fetal bovine serum, 200 U/ml penicillin and 0.2 mg/ml streptomycin at 37° C. with 5% CO2. At 85% confluency cells were split with 0.25% trypsin/1 mM EDTA and plated at 10% confluency on glass coverslips. At 12 hours the medium was replaced and the cells transiently transfected using a standard calcium phosphate protocol and the appropriate calcium channel cDNA's. Fresh DMEM was supplied and the cells transferred to 28° C./5% CO2. Cells were incubated for 1 to 2 days prior to whole cell recording.
Whole cell patch clamp experiments were performed using an Axopatch 200B amplifier (Axon Instruments, Burlingame, Calif.) linked to a personal computer equipped with pCLAMP software. The external and internal recording solutions contained, respectively, 5 mM BaCl2, 10 mM MgCl2, 10 mM HEPES, 40 mM TEACl, 10 mM glucose, 87.5 mM CsCl (pH 7.2) and 108 mM CsMS, 4 mM MgCl2, 9 mM EGTA, 9 mM HEPES (pH 7.2). Currents were typically elicited from a holding potential of −80 mV to +10 mV using Clampex software (Axon Instruments). Typically, currents were first elicited with low frequency stimulation (0.067 Hz) and allowed to stabilize prior to application of the compounds. The compounds were then applied during the low frequency pulse trains for two to three minutes to assess tonic block, and subsequently the pulse frequency was increased to 0.2 Hz to assess frequency dependent block. Data were analyzed using Clampfit (Axon Instruments) and SigmaPlot 4.0 (Jandel Scientific).

[2] = target: T2, human α1G T-type channels (Homo sapiens, UniProt O43497); assay: T-type calcium channel block, patch clamp in HEK cell lines; format: cell-based
T2 construct: expressed in transfected cells; host or cells: HEK cell lines
T2 sequence (O43497 whole entry): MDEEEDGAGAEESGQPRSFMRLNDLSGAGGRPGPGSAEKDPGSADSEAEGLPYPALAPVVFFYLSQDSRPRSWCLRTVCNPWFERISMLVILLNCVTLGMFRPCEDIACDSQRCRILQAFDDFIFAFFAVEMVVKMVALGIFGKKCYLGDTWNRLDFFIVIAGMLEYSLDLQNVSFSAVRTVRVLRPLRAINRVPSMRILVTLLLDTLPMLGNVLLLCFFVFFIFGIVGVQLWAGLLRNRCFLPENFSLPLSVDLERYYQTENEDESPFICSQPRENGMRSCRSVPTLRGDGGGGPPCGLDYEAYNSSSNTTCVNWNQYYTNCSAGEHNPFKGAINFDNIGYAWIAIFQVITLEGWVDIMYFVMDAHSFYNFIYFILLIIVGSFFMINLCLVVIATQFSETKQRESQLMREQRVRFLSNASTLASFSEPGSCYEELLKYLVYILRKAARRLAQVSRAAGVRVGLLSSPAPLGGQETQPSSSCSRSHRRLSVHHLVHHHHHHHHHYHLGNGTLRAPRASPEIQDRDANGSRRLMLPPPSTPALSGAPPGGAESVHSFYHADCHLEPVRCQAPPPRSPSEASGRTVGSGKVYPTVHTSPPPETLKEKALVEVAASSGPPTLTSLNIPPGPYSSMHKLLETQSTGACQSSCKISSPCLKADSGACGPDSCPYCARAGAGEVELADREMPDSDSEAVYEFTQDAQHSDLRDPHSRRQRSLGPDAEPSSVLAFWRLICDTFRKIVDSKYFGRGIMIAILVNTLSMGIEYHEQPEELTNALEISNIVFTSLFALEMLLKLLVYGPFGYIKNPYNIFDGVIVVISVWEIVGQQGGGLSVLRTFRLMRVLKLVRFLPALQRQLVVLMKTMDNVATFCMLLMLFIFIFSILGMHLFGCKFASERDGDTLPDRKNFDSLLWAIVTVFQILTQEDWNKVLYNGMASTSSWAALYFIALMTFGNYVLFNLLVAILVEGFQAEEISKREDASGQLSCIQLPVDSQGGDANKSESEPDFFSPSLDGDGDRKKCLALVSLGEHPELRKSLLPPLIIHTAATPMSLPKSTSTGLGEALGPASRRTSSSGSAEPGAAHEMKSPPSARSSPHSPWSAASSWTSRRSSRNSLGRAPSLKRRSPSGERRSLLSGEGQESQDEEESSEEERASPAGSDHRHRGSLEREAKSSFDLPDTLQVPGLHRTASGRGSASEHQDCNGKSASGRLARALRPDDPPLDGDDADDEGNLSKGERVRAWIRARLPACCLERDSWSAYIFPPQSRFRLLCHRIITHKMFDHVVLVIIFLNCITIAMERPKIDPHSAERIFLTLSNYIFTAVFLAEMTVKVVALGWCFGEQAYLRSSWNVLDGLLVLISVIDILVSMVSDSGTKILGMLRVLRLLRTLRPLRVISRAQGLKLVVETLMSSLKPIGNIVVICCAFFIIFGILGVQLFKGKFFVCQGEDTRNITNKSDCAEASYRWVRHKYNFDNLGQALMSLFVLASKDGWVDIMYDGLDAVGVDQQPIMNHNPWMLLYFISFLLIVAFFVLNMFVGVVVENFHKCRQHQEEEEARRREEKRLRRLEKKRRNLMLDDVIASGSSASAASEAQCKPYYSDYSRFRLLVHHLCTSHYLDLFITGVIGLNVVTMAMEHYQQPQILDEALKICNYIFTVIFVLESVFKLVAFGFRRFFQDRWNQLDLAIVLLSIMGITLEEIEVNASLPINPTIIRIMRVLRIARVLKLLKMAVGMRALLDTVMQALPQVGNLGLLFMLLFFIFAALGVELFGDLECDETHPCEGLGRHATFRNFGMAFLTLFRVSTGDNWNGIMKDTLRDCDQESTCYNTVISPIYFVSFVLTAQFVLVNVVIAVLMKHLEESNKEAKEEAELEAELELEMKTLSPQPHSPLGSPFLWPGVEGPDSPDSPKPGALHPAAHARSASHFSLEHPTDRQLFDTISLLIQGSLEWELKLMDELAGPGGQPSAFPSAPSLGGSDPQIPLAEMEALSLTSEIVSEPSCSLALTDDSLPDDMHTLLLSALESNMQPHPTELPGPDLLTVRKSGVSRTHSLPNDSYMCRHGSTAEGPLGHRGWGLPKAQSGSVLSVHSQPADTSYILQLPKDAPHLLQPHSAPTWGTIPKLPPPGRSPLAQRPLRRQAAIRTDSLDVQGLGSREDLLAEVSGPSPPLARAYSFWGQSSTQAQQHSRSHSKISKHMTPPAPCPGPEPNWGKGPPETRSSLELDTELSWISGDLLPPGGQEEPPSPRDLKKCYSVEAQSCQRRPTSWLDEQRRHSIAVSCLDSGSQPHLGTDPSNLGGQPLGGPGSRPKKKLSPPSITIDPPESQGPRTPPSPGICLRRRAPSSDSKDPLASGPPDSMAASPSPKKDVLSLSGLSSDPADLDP
Description: Standard patch-clamp techniques were employed to identify blockers of T-type currents. Briefly, previously described HEK cell lines stably expressing human α1G T-type channels were used for all the recordings (passage #: 4-20, 37° C., 5% CO2). To obtain T-type currents, plastic dishes containing semi-confluent cells were positioned on the stage of a ZEISS AXIOVERT S100 microscope after replacing the culture medium with external solution (see below). Whole-cell patches were obtained using pipettes (borosilicate glass with filament, O.D.: 1.5 mm, I.D.: 0.86 mm, 10 cm length), fabricated on a SUTTER P-97 puller with resistance values of ˜5 MΩ (see below for internal solution).
T-type currents were reliably obtained by using two voltage protocols: • (1) “non-inactivating”, and (2) “inactivation”
In the non-inactivating protocol, the holding potential is set at −110 mV and with a pre-pulse at −100 mV for 1 second prior to the test pulse at −40 mV for 50 ms. In the inactivation protocol, the pre-pulse is at approximately −85 mV for 1 second, which inactivates about 15% of the T-type channels.
Test compounds were dissolved in external solution, 0.1-0.01% DMSO. After ˜10 min rest, they were applied by gravity close to the cell using a WPI microfil tubing. The “non-inactivated” pre-pulse was used to examine the resting block of a compound. The “inactivated” protocol was employed to study voltage-dependent block. However, the initial data shown below were mainly obtained using the non-inactivated protocol only. IC50 values are shown for various compounds of the invention in Table 5.

[3] = low frequency stimulation 0.067 Hz (tonic block), read-out: IC50 @ 0.067 Hz
[4] = pulse frequency 0.2 Hz (frequency dependent block), read-out: IC50 @ 0.2 Hz
[5] = non-inactivating protocol, pre-pulse −100 mV (resting block), read-out: IC50 @ −100 mV
[6] = −80 mV (inactivation protocol, voltage-dependent block), read-out: IC50 @ −80 mV

T1 sequence (Q02294 whole entry): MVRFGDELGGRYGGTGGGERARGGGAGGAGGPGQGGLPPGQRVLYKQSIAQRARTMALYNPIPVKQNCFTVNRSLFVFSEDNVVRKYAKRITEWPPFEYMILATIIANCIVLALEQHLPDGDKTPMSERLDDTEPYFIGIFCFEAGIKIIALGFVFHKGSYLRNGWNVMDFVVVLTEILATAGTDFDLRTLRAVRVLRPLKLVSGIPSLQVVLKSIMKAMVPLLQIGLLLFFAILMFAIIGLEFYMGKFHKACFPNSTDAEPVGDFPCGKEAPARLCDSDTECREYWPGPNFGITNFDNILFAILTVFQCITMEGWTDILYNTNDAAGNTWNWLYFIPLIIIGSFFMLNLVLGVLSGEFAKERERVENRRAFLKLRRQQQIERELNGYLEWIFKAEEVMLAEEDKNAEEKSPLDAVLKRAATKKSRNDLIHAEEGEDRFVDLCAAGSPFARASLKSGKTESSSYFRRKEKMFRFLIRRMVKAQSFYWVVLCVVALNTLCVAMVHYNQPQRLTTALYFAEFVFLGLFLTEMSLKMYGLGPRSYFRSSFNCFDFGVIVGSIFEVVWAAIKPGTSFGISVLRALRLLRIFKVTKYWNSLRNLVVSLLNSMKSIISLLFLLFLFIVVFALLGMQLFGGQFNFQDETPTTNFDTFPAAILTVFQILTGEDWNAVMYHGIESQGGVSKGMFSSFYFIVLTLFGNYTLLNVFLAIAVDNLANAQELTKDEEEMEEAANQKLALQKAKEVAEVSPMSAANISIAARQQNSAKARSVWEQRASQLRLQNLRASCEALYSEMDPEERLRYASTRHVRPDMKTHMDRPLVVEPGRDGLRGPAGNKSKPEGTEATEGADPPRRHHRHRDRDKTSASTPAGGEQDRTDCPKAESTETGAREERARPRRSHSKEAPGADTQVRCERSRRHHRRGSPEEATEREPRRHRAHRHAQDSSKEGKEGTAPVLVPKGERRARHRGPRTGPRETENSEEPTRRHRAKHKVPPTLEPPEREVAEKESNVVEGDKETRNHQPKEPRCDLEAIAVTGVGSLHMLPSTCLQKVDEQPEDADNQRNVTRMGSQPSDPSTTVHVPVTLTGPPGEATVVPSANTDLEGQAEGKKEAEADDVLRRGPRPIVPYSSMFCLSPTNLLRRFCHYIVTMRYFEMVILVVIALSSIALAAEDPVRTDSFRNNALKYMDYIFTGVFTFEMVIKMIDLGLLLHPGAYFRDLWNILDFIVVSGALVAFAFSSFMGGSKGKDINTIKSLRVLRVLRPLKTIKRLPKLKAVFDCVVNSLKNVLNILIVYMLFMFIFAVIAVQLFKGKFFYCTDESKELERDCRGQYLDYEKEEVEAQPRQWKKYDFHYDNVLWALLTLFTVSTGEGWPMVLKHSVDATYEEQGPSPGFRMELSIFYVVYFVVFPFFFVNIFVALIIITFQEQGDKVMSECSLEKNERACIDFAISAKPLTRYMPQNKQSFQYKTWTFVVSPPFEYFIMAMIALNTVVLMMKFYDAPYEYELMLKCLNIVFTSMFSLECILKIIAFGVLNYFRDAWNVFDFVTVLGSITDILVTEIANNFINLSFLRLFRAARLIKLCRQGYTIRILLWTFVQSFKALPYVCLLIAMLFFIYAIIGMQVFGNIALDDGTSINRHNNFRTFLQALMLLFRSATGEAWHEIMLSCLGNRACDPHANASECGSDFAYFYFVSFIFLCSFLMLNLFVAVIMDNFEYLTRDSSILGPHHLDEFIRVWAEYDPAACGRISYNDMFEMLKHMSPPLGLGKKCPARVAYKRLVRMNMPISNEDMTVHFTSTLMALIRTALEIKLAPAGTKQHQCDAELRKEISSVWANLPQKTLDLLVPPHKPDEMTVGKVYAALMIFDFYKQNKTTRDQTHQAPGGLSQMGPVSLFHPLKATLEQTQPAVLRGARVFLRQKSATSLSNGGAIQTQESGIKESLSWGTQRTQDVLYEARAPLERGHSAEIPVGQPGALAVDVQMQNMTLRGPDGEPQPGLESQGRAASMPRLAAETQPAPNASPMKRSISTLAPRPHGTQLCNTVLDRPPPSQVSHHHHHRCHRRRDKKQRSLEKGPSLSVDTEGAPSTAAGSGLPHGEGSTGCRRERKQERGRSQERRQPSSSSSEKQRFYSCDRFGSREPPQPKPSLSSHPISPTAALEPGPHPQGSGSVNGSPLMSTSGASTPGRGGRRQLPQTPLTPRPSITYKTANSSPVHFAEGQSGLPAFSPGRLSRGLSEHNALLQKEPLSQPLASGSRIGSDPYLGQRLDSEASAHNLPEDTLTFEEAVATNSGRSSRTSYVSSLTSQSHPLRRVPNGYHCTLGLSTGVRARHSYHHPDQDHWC

SMILES | IC50 [1, 3] [nM] | IC50 [1, 4] [nM] | IC50 [2, 5] [nM] | IC50 [2, 6] [nM]
COc1cc(C(=O)NC/C=C\CNC(=O)CCCCC(c2ccc(F)cc2)c2ccc(F)cc2)cc(OC)c1OC [Compound P1, N-{(Z)-4-[6,6-Bis-(4-fluoro-phenyl)-hexanoylamino]-but-2-enyl}-3,4,5-trimethoxy-benzamide] | 230 | 190 | – | –
COc1c(C(C)(C)C)cc(C(=O)NC/C=C\CNC(=O)CCCCC(c2ccc(F)cc2)c2ccc(F)cc2)cc1C(C)(C)C [Compound P2, N-{(Z)-4-[6,6-Bis-(4-fluoro-phenyl)-hexanoylamino]-but-2-enyl}-3,5-di-tert-butyl-4-methoxy-benzamide] | 430 | 310 | – | –
CC(C)(C)c1cc(C(=O)NC/C=C\CNC(=O)CCCCC(c2ccc(F)cc2)c2ccc(F)cc2)cc(C(C)(C)C)c1O [Compound P3, N-{(Z)-4-[6,6-Bis-(4-fluoro-phenyl)-hexanoylamino]-but-2-enyl}-3,5-di-tert-butyl-4-hydroxy-benzamide] | 470 | 270 | – | –
CC(C)c1ccc(C(=O)NC/C=C\CNC(=O)CCCCC(c2ccc(F)cc2)c2ccc(F)cc2)cc1 [Compound P7, N-{(Z)-4-[6,6-Bis-(4-fluoro-phenyl)-hexanoylamino]-but-2-enyl}-4-isopropyl-benzamide] | 97 | 54 | 196 | 56
COc1cc(C(=O)NC/C=C/CNC(=O)CCCCC(c2ccc(F)cc2)c2ccc(F)cc2)cc(OC)c1OC [Compound P11, N-{(E)-4-[6,6-Bis-(4-fluoro-phenyl)-hexanoylamino]-but-2-enyl}-3,4,5-trimethoxy-benzamide] | 331 | 196 | 155 | 51
COc1c(C(C)(C)C)cc(C(=O)NC/C=C/CNC(=O)CCCCC(c2ccc(F)cc2)c2ccc(F)cc2)cc1C(C)(C)C [Compound P12, N-{(E)-4-[6,6-Bis-(4-fluoro-phenyl)-hexanoylamino]-but-2-enyl}-3,5-di-tert-butyl-4-methoxy-benzamide] | 220 | 146 | 112 | 34
CC(C)(C)c1cc(C(=O)NC/C=C/CNC(=O)CCCCC(c2ccc(F)cc2)c2ccc(F)cc2)cc(C(C)(C)C)c1O [Compound P13, N-{(E)-4-[6,6-Bis-(4-fluoro-phenyl)-hexanoylamino]-but-2-enyl}-3,5-di-tert-butyl-4-hydroxy-benzamide] | 790 | 540 | – | –
CC(C)(C)c1ccc(C(=O)NC/C=C/CNC(=O)CCCCC(c2ccc(F)cc2)c2ccc(F)cc2)cc1 [Compound P14, N-{(E)-4-[6,6-Bis-(4-fluoro-phenyl)-hexanoylamino]-but-2-enyl}-4-tert-butyl-benzamide] | 510 | 380 | – | –
O=C(CCCCC(c1ccc(F)cc1)c1ccc(F)cc1)NC/C=C/CNC(=O)COc1ccc(Cl)cc1 [Compound P16, 6,6-Bis-(4-fluoro-phenyl)-hexanoic acid{(E)-4-[2-(4-chloro-phenoxy)-acetylamino]-but-2-enyl}-amide] | 52 | 15 | 26 | 7
CC(C)c1ccc(C(=O)NC/C=C/CNC(=O)CCCCC(c2ccc(F)cc2)c2ccc(F)cc2)cc1 [Compound P17, N-{(E)-4-[6,6-Bis-(4-fluoro-phenyl)-hexanoylamino]-but-2-enyl}-4-isopropyl-benzamide] | 598 | 266 | 7 | 3
O=C(CCCCC(c1ccc(F)cc1)c1ccc(F)cc1)NC/C=C/CNC(=O)c1ccc(Cl)cc1 [Compound P18, N-{(E)-4-[6,6-Bis-(4-fluoro-phenyl)-hexanoylamino]-but-2-enyl}-4-chloro-benzamide] | 809 | 305 | 149 | 39
Cc1ccc(C(=O)NC/C=C/CNC(=O)CCCCC(c2ccc(F)cc2)c2ccc(F)cc2)cc1 [Compound P19, N-{(E)-4-[6,6-Bis-(4-fluoro-phenyl)-hexanoylamino]-but-2-enyl}-4-methyl-benzamide] | 182 | 132 | 22 | 9
O=C(CCCCC(c1ccc(F)cc1)c1ccc(F)cc1)NC/C=C/CNC(=O)c1ccc(F)cc1 [Compound P20, N-{(E)-4-[6,6-Bis-(4-fluoro-phenyl)-hexanoylamino]-but-2-enyl}-4-fluoro-benzamide] | 188 | 134 | 126 | 43
O=C(CC(c1ccccc1)c1ccccc1)NC/C=C/CN(Cc1ccncc1)Cc1ccncc1 [Compound P21, N-[(E)-4-(Bis-pyridin-4-ylmethyl-amino)-but-2-enyl]-3,3-diphenyl-propionamide] | 514 | 278 | 423 | 163
COc1cc(C(=O)NCC#CCNC(=O)CCCCC(c2ccc(F)cc2)c2ccc(F)cc2)cc(OC)c1OC [Compound P22, N-{4-[6,6-Bis-(4-fluoro-phenyl)-hexanoylamino]-but-2-ynyl}-3,4,5-trimethoxy-benzamide] | 237 | 139 | 358 | 78
CC(C)c1ccc(C(=O)NCC#CCNC(=O)CCCCC(c2ccc(F)cc2)c2ccc(F)cc2)cc1 [Compound P25, N-{4-[6,6-Bis-(4-fluoro-phenyl)-hexanoylamino]-but-2-ynyl}-4-isopropyl-benzamide] | 770 | 760 | 1000 | 424
O=C(CC(c1ccccc1)c1ccccc1)NCC#CCN(Cc1ccncc1)Cc1ccncc1 [Compound P30, N-[4-(Bis-pyridin-4-ylmethyl-amino)-but-2-ynyl]-3,3-diphenyl-propionamide] | 340 | 330 | 82 | 21
O=C(CC(c1ccccc1)c1ccccc1)NCC#CCN(Cc1cccnc1)Cc1cccnc1 [Compound P31, N-[4-(Bis-pyridin-3-ylmethyl-amino)-but-2-ynyl]-3,3-diphenyl-propionamide] | 420 | 420 | 94 | 27
CC(C)(C)c1ccc(C(=O)NCCCCNC(=O)CCCCC(c2ccc(F)cc2)c2ccc(F)cc2)cc1 [Compound P34, N-{4-[6,6-Bis-(4-fluoro-phenyl)-hexanoylamino]-butyl}-4-tert-butyl-benzamide] | 291 | 165 | 177 | 141
O=C(CCCCC(c1ccc(F)cc1)c1ccc(F)cc1)NCCCCNC(=O)COc1ccc(Cl)cc1 [Compound P36, 6,6-Bis-(4-fluoro-phenyl)-hexanoic acid{4-[2-(4-chloro-phenoxy)-acetylamino]-butyl}-amide] | 39 | 10 | 63 | 29

— patent publication US7511077B2, “Diamine calcium channel blockers” (Neuromed Pharmaceuticals Ltd., priority 2005, dated 2009)
